This is an account of results in US20170334899A1, “AMINO-SUBSTITUTED ISOTHIAZOLES” (Bayer Pharma Aktiengesellschaft, priority 2014, published 2017).

Molecules are shown by their SMILES. Structures can show the parent of a compound that is named as a salt. Where two headings read alike, the source gives them in different places.

Experiment [1] concerns the target T1, catalytic domain of human Bub1 (amino acids 704-1085) (Homo sapiens, UniProt O43683).
T1 construct: catalytic domain of human Bub1 (amino acids 704-1085); His6 (N); made in house; host or cells: insect cells (Hi5)
The experiment in a line: Bub1 kinase assay (TR-FRET). Type of experiment: biochemical. Particulars: 10 μM ATP, avg, read-out: Bub1 avg (IC50 [mol/l]). The procedure, abridged:
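Readout is the 665/620 nm TR-FRET ratio from anti-phosphoserine antibody, Eu-labelled anti-mouse IgG and streptavidin-XL665, scaled between no-enzyme and uninhibited controls. Reaction: 1 μM biotinylated peptide, 10 μM ATP, 60 min, 22 °C, after 15 min compound preincubation with His6-Bub1 (704-1085, insect-expressed, ~200 ng/ml).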
A general note: In TR-FRET formats the signal depends on donor and acceptor labels being close together.

Experiment [2] deals with human cervical tumor cell line HeLa (ATCC CCL-2). The experiment in a line: SAC-Formation - Paclitaxel-Induced Assay. Format: cell-based. Particulars: 24 h, HeLa cells, paclitaxel 0.05 μM, test range 0.005 μM-20 μM, read-out: IC50 [mol/l] SAC-Formation - Paclitaxel-Induced Assay. The procedure, abridged:
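HeLa cells incubated overnight at 37° C, then given paclitaxel (0.05 μM final) plus test compound (0.005–20 μM, 0.5% DMSO) together for 24 h at 37° C. Fixed cells stained for phospho-histone H3 Ser10 (mitotic cells) and Hoechst 33342 (cell count); imaging-derived mitotic index fitted by four-parameter Hill equation.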

T1 sequence (O43683 704-1085): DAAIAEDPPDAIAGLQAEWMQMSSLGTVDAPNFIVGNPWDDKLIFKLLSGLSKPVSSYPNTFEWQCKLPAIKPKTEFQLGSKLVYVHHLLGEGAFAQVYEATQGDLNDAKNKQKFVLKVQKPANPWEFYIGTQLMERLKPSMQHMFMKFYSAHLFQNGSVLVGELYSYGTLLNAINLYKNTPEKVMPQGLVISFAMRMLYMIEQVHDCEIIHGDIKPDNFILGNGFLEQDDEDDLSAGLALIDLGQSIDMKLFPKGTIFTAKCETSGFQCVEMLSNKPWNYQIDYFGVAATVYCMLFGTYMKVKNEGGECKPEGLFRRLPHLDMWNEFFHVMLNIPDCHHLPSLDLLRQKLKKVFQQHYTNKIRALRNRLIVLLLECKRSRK

With `Cc1nsc(Nc2cnc3ccccc3n2)c1C(=O)Nc1ccc(Oc2cccc(C(F)(F)F)c2)nc1` [Example 117, 3-Methyl-5-(quinoxalin-2-ylamino)-N-{6-[3-(trifluoromethyl)phenoxy]pyridin-3-yl}-1,2-thiazole-4-carboxamide], the IC50 in experiment [1] was not below 20 µM; in experiment [2] (Homo sapiens, HeLa) it was 1.5 µM.
The matching figures for `Cc1nsc(Nc2cnc3ccccc3n2)c1C(=O)Nc1ccc(C(=O)N2CCCN(CC(F)(F)F)CC2)cc1` [Example 159]: more than 20 µM and 10 µM.
The matching figures for `Cc1nsc(Nc2cnc(C(F)(F)F)cn2)c1C(=O)Nc1ccc(C(=O)O)cc1` [Example 97, 4-{[(3-Methyl-5-{[5-(trifluoromethyl)pyrazin-2-yl]amino}-1,2-thiazol-4-yl)carbony]-amino}benzoic acid]: 2.9 µM and 20 µM.
The matching figures for `CNS(=O)(=O)c1ccc(NC(=O)c2c(C)nsc2Nc2cnc3ccccc3n2)cc1` [Example 111, 3-Methyl-N-[4-(methylsulfannoyl)phenyl]-5-(quinoxalin-2-ylamino)-1,2-thiazole-4-carboxamide]: not below 20 µM and 0.13 µM.
For `Cc1nsc(Nc2cnc(C(F)(F)F)cn2)c1C(=O)Nc1ccc(OC2CCN(CC(F)(F)F)CC2)nc1` [Example 9, -Methyl-N-(6-{[1-(2,2,2-trifluoroethyl)piperidin-4-yl]oxy}pyridin-3-yl)-5-{[5-(trifluoromethyl)pyrazin-2-yl]amino}-1,2-thiazole-4-carboxamide], the IC50 in experiment [1] was not below 20 µM; in experiment [2] (Homo sapiens, HeLa) it was 0.36 µM.
With `Cc1nsc(Nc2cnc(C(F)(F)F)cn2)c1C(=O)Nc1ccc(O[C@@H]2CCN(CC(F)F)C[C@@H]2F)nc1` [Example 137, N-(6-{[(3S,4R)-1-(2,2-difluoroethyl)-3-fluoropiperidin-4-yl]oxy}pyridin-3-yl)-3-methyl-5-{[5-(trifluoromethyl)pyrazin-2-yl]amino}-1,2-thiazole-4-carboxamide], the IC50 in experiment [1] was more than 20 µM; in experiment [2] (Homo sapiens, HeLa), 0.032 µM.
The matching figures for `Cc1nsc(Nc2cnc(C(F)(F)F)cn2)c1C(=O)Nc1ccc(O[C@@H]2CCN(CC(F)(F)F)C[C@@H]2F)nc1` [Example 138, N-(6-{[(3S,4R)-3-fluoro-1-(2,2,2-trifluoroethyl)piperidin-4-yl]oxy}pyridin-3-yl)-3-methyl-5-{[5-(trifluoromethyl)pyrazin-2-yl]amino}-1,2-thiazole-4-carboxamide]: more than 20 µM and 0.17 µM.
The matching figures for `Cc1nsc(Nc2cnc3ccccc3n2)c1C(=O)Nc1ccc(S(C)(=O)=O)cc1` [Example 115, 3-Methyl-N-[4-(methylsulfonyl)phenyl]-5-(quinoxalin-2-ylamino)-1,2-thiazole-4-carboxamide]: 8.9 µM and 3.7 µM.
The matching figures for `Cc1nsc(Nc2cnc(C(F)(F)F)cn2)c1C(=O)Nc1ccc(O[C@H]2CCN(CC(F)F)C[C@H]2F)nc1` [Example 144, N-(6-{[(3R,4S)-1-(2,2-difluoroethyl)-3-fluoropiperidin-4-yl]oxy}pyridin-3-yl)-3-methyl-5-{[5-(trifluoromethyl)pyrazin-2-yl]amino}-1,2-thiazole-4-carboxamide]: more than 20 µM and 0.094 µM.
Turning to `Cc1nsc(Nc2ccc(C#N)cn2)c1C(=O)Nc1ccc(Oc2cccc(C(F)(F)F)c2)nc1` [Example 118, 5-[(5-Cyanopyridin-2-yl)amino]-3-methyl-N-{6-[3-(trifluoromethyl)phenoxy]pyridin-3-yl}-1,2-thiazole-4-carboxamide], the IC50 is not below 20 µM in experiment [1] and 0.053 µM in experiment [2] (Homo sapiens, HeLa).
The matching figures for `Cc1nsc(Nc2cnc(C(F)(F)F)cn2)c1C(=O)Nc1ccc(C(=O)N2CCN(CC(F)F)CC2)cc1` [Example 154, N-(4-{[4-(2,2-difluoroethyl)piperazin-1-yl]carbonyl}phenyl)-3-methyl-5-{[5-(trifluoromethyl)pyrazin-2-yl]amino}-1,2-thiazole-4-carboxamide]: more than 20 µM and 1.2 µM.
The matching figures for `Cc1nsc(Nc2cnc3ccccc3n2)c1C(=O)Nc1cccc(C(=O)N2CCN(C)CC2)c1` [Example 102, 3-Methyl-N-{3-[(4-methylpiperazin-1-yl)carbonyl]phenyl}-5-(quinoxalin-2-ylamino)-1,2-thiazole-4-carboxamide]: 19 µM and 7.5 µM.
The matching figures for `Cc1nsc(Nc2cnc(C(F)(F)F)cn2)c1C(=O)Nc1ccc(OCC2CCN(CC(F)F)C2)nc1` (stereo not drawn) [Example 122, N-(6-{[1-(2,2-difluoroethyl)pyrrolidin-3-yl]methoxy}pyridin-3-yl)-3-methyl-5-{[5-(trifluoromethyl)pyrazin-2-yl]amino}-1,2-thiazole-4-carboxamide]: not below 20 µM and 0.03 µM.
As to `Cc1nsc(Nc2cnc(C(F)(F)F)cn2)c1C(=O)Nc1ccc(O[C@H]2CCN(CCC(F)(F)F)C[C@H]2F)nc1` [Example 146, N-(6-{[(3R,4S)-3-fluoro-1-(3,3,3-trifluoropropyl)piperidin-4-yl]oxy}pyridin-3-yl)-3-methyl-5-{[5-(trifluoromethyl)pyrazin-2-yl]amino}-1,2-thiazole-4-carboxamide], the IC50 in experiment [1] was more than 20 µM; in experiment [2] (Homo sapiens, HeLa), 0.11 µM.
`Cc1nsc(Nc2cnc(C(F)(F)F)cn2)c1C(=O)Nc1ccc(OC2CCN(CCC(F)(F)F)CC2)nc1` [Example 426, 3-Methyl-5-{[5-(trifluoromethyl)pyrazin-2-yl]amino}-N-(6-{[1-(3,3,3-trifluoro-propyl)piperidin-4-yl]oxy}pyridin-3-yl)-1,2-thiazole-4-carboxamide, Salt with Hydrochloric Acid]: the IC50 is not below 20 µM in experiment [1] and 0.032 µM in experiment [2].
Regarding `COc1ccc(NC(=O)c2c(C)nsc2Nc2ccc(C#N)cn2)c(N2CCOCC2)n1` [Example 173, 5-[(5-cyanopyridin-2-yl)amino]-N-[6-methoxy-2-(morpholin-4-yl)pyridin-3-yl]-3-methyl-1,2-thiazole-4-carboxamide], the IC50 is more than 20 µM in experiment [1] and 6.7 µM in experiment [2] (Homo sapiens, HeLa).
The matching figures for `Cc1nsc(Nc2cnc(C(F)(F)F)cn2)c1C(=O)Nc1ccc(OC2CCN(CC(F)F)CC2)c(F)c1` [Example 164, N-(4-{[1-(2,2-difluoroethyl)piperidin-4-yl]oxy}-3-fluorophenyl)-3-methyl-5-{[5-(trifluoromethyl)pyrazin-2-yl]amino}-1,2-thiazole-4-carboxamide]: more than 20 µM and 0.14 µM.
The matching figures for `Cc1nsc(Nc2ccc(C#N)cn2)c1C(=O)Nc1ccc(N[C@@H](C)C(=O)OC(C)(C)C)nc1` [Example 170, tert-butyl N-{5-[({5-[(5-cyanopyridin-2-yl)amino]-3-methyl-1,2-thiazol-4-yl}carbonyl)amino]pyridin-2-yl}alaninate]: more than 20 µM and 1.1 µM.
The matching figures for `Cc1nsc(Nc2cnc(C(F)(F)F)cn2)c1C(=O)Nc1ccc(C(=O)OC(C)(C)C)cc1` [Example 96, tert-Butyl 4-{[(3-methyl-5-{[5-(trifluoromethyl)pyrazin-2-yl]amino}-1,2-thiazol-4-yl)carbonyl]amino}benzoate]: not below 20 µM and 0.039 µM.
Take `CCCN1CC[C@@H](Oc2ccc(NC(=O)c3c(C)nsc3Nc3cnc(C(F)(F)F)cn3)cn2)[C@@H](F)C1` [Example 140, N-(6-{[(3S,4R)-3-fluoro-1-propylpiperidin-4-yl]oxy}pyridin-3-yl)-3-methyl-5-{[5-(trifluoromethyl)pyrazin-2-yl]amino}-1,2-thiazole-4-carboxamide]: the IC50 in experiment [1] was more than 20 µM; in experiment [2] (Homo sapiens, HeLa) it was 0.11 µM.
The matching figures for `Cc1nsc(Nc2ccc(C#N)cn2)c1C(=O)Nc1cccc(S(C)(=O)=O)c1` [Example 150, 5-[(5-cyanopyridin-2-yl)amino]-3-methyl-N-[3-(methylsulfonyl)phenyl]-1,2-thiazole-4-carboxamide]: more than 20 µM and 0.25 µM.
The matching figures for `Cc1nsc(Nc2cncc(C(F)(F)F)n2)c1C(=O)Nc1ccc(OC2CCN(C(=O)OC(C)(C)C)CC2)nc1` [Example 12, tert-Butyl 4-[(5-{[(3-methyl-5-{[6-(trifluoromethyl)pyrazin-2-yl]amino}-1,2-thiazol-4-yl)carbonyl]amino}pyridin-2-yl)oxy]piperidine-1-carboxylate]: not below 20 µM and 0.23 µM.
In the case of `Cc1nsc(Nc2cnc(C(F)(F)F)cn2)c1C(=O)Nc1ccc(OC2CCN(CC(F)F)CC2)nc1` [Example 8, N-(6-{[1-(2,2-Difluoroethyl)piperidin-4-yl]oxy}pyridin-3-yl)-3-methyl-5-{[5-(trifluoromethyl)pyrazin-2-yl]amino}-1,2-thiazole-4-carboxamide], the IC50 is not below 20 µM in experiment [1] and 1.5 µM in experiment [2] (Homo sapiens, HeLa).
The matching figures for `Cc1nsc(Nc2cnc(C(F)(F)F)cn2)c1C(=O)Nc1ccc(OCC2CCN(CC(F)(F)F)C2)nc1` (stereo not drawn) [Example 123, 3-Methyl-N-(6-{[1-(2,2,2-trifluoroethyl)pyrrolidin-3-yl]methoxy}pyridin-3-yl)-5-{[5-(trifluoromethyl)pyrazin-2-yl]amino}-1,2-thiazole-4-carboxamide]: not below 20 µM and 0.024 µM.
